Source: patent EP0237516A1, “Benzyl-pyrimidine derivatives, process for their preparation and compositions containing them” (COMPAGNIE ROUSSELOT, Société Anonyme:, priority 1986, dated 1987)
Values after ≈ are worked out from the molar mass of the structure shown. Read-outs that look alike come from different tables or passages of the source.

Tests used:
[1] = system: souches de Staphylococcus aureus résistant à la triméthoprime; assay: MIC determination by serial dilution on Mueller-Hinton agar; type: cell-based; settings: 18 h, compounds as isethionate, read-out: CMI
Listeria monocytogenes = assay: MIC determination by serial dilution on Mueller-Hinton agar, trimethoprim-sensitive strains; type: cell-based; settings: isethionates; for MIC: 18 h, Listeria monocytogenes 485, TMP-sensitive, read-out: CMI
Experimental: (§1) A cet effet, on a déterminé l'activité bactériostatique par la méthode des antibiogrammes par dilution en milieu gélosé (milieu de MUELLER-HINTON déshydraté) et par diffusion en milieu gélosé.
(§2) On a utilisé le composé à étudier selon une gamme de concentrations de 0,625 à 640 µg/ml (progression de raison 2) à partir de solutions-mères titrant 640 µg/ml à 1280 µg/ml selon la solubilité du composé, toutes les dilutions ultérieures ayant été réalisées dans un mélange méthanol/eau à 20%.
(§3) On a procédé sur milieu gélosé de MUELLER-HINTON déshydraté, par la méthode des dilutions sériées, les concentrations finales en composé à étudier s'échelonnant de 0,0625 à 32 ou 64 µg/ml.
(§4) A cet effet, on ensemence des boîtes de PETRI à l'aide d'un inoculateur multiple (inoculum de 5 x 10³ à 1 x 10⁴ unités formant colonies par spot d'inoculation) et on enregistre le résultat après 18 h à 37°C en ne tenant pas compte des micro-colonies qui se développent parfois ni de la présence de moins de 4 colonies d'aspect normal.

Escherichia coli = assay: as above; type: cell-based; settings: isethionates, read-out: CMI
Experimental: as §1, §2, §3, §4

Staphylococcus aureus = assay: as above; type: cell-based; settings: isethionates, read-out: CMI
Experimental: as §1, §2, §3, §4

Serratia marcescens = assay: as above; type: cell-based; settings: 18 h; Serratia marcescens 56644; isethionates; read-out: CMI
Experimental: as §1, §2, §3, §4

[2] = system: souches de Staphylococcus aureus résistant à la triméthoprime; assay: Bacteriostatic activity by disc diffusion on Mueller-Hinton agar; type: cell-based; settings: 5 µg per disc, free base, read-out: Diamètre d'inhibition
Experimental: On utilise à cet effet le milieu gélosé de MUELLER-HINTON que l'on ensemence par inondation à partir d'une suspension bactérienne titrant 5 x 10⁶ à 1 x 10⁷ unités formant colonies par ml. On imprègne les disques (disque de 6 mm de diamètre de SCHLEICHER et SCHULL) avec 20 µl d'une solution de chaque composé à étudier de façon à obtenir une charge de 5 µg par disque. A titre de contrôle lors de chaque manipulation, on charge également un disque avec 5 µg de triméthoprime. On néglige également dans ce test les microcolonies qui peuvent apparaître à l'intérieur des zones d'inhibition.
On a obtenu les résultats suivants exprimés en mm d'inhibition, avec des composés de l'invention sous forme basique comparativement à la triméthoprime. Ces résultats ont été enregistrés vis-à-vis de souches de Staphylococcus aureus résistant à la triméthoprime.

[3] = system: souches de Staphylococcus aureus résistant à la triméthoprime; assay: MIC determination by serial dilution on Mueller-Hinton agar; type: cell-based; settings: 18 h, from hospitalised patients, compounds as free base, read-out: CMI
Experimental: as §1, §2, §3, §4
Les composés sous forme basique, des Exemples 1 et 4 ont été étudiés comparativement à la triméthoprime (TMP) à l'égard de 4 souches provenant de malades hospitalisés.
A cet effet, on a solubilisé les composés à étudier sous forme basique dans un mélange comprenant 9 ml d'eau distillée, 1 ml de diméthylformamide et quelques gouttes d'acide iséthionique.

bacilles à Gram - = assay: Activity in association with sulfamethoxazole; type: cell-based
Excerpt: (§5) L'action du composé de l'Exemple 21 a été étudiée comparativement à l'iséthionate de triméthoprime vis-à-vis de 73 souches de bacilles à Gram -. Des résultats trouvés, on a pu conclure que 33 souches étaient résistantes au sel de triméthoprime et 65 souches étaient résistantes au composé de l'Exemple 21.
Par contre, si on associe chacun de ces composés au sulfaméthoxazole, le spectre d'activité de l'association composé de l'Exemple 21/-sulfaméthoxazole est similaire à celui de l'association de triméthoprime/ sulfaméthoxazole.

[4] = system: 73 souches de bacilles à Gram -; assay: Activity against Gram-negative bacilli, count of resistant strains; type: cell-based; settings: number of resistant strains out of 73 Gram-negative bacilli strains
Excerpt: as §5

[5] = Acute toxicity, intravenous; settings: mouse, in vivo; mice, groups of 5, intravenous route; read-out: DL₅₀
Experimental: La toxicité aiguë des composés de l'invention a été déterminée sur des lots de 5 souris par voie intraveineuse. On a ainsi trouvé que la DL₅₀du composé de l'Exemple 9, selon cette voie d'administration, est de 157,4 mg/kg.

[6] = Listeria monocytogenes 378, TMP-sensitive
[7] = ATCC25922, 18 h, Escherichia coli ATCC 25922
[8] = 18 h, Staphylococcus aureus 18839, TMP-sensitive
[9] = ATCC6338, 18 h, Staphylococcus aureus ATCC 6338, TMP-sensitive
[10] = ATCC25923, 18 h, Staphylococcus aureus ATCC 25923, TMP-sensitive
[11] = strain No. 23543, TMP-resistant
[12] = strain No. 33274, TMP-resistant
[13] = strain No. 40314, TMP-resistant
[14] = strain No. 57760, TMP-resistant
[15] = Listeria monocytogenes 5921, TMP-sensitive
[16] = Listeria monocytogenes 6777, TMP-sensitive

Row | Structure (SMILES) | MIC ([1]; strain No. 82, TMP-resistant) [µg/mL] | MIC ([1]; strain No. 87, TMP-resistant) [µg/mL] | MIC ([1]; strain No. 102, TMP-resistant) [µg/mL] | MIC (Listeria monocytogenes) [µg/mL] | MIC [3, 11] [µg/mL] | MIC [3, 12] [µg/mL] | MIC [3, 13] [µg/mL] | MIC [3, 14] [µg/mL] | MIC ([1]; strain No. 101, TMP-resistant) [µg/mL] | CMI (Listeria monocytogenes; [6]) | MIC (Escherichia coli; 18 h, Escherichia coli 33430) [µg/mL] | MIC (Escherichia coli; [7]) [µg/mL] | MIC (Staphylococcus aureus; [9]) [µg/mL] | MIC (Staphylococcus aureus; [10]) [µg/mL] | MIC (Serratia marcescens) [µg/mL] | zone of inhibition at 5 µg/disc [2, 11] [mm] | zone of inhibition at 5 µg/disc [2, 12] [mm] | zone of inhibition at 5 µg/disc [2, 13] [mm] | zone of inhibition at 5 µg/disc [2, 14] [mm] | MIC ([1]; strain No. 107, TMP-resistant) [µg/mL] | also measured
1 | COc1cc(Cc2cnc(N)nc2N)c(Br)cc1OC1CCCC1 [Ex. 21, Iséthionate de diamino-2,4 (bromo-2 cyclopentyloxy-4 méthoxy-5 benzyl)-5 pyrimidine] | 1 (≈ 2.54 µM) | 1 (≈ 2.54 µM) | 1 (≈ 2.54 µM) | 0.06 (≈ 0.153 µM) | – | – | – | – | 2 (≈ 5.09 µM) | 0,06 µg/ml | 16 (≈ 40.7 µM) | 32 (≈ 81.4 µM) | 0.06 (≈ 0.153 µM) | 0.5 (≈ 1.27 µM) | 16 (≈ 40.7 µM) | – | – | – | – | 4 (≈ 10.2 µM) | potentialisation du sulfaméthoxazole (bacilles à Gram -; compared with the trimethoprim salt): potentialise aussi bien le sulfaméthoxazole que ne le fait le sel de triméthoprime; spectre d'activité de l'association (bacilles à Gram -; in association with sulfaméthoxazole, compared with the association triméthoprime/sulfaméthoxazole): similaire; MIC ([1]; strain No. 109, TMP-resistant): 0.5 µg/mL (≈ 1.27 µM); CMI (Listeria monocytogenes; [15]): 0,06 µg/ml; CMI (Listeria monocytogenes; [16]): 0,06 µg/ml; souches résistantes [4]: 65 souches
2 | CCOc1cc(I)c(Cc2cnc(N)nc2N)cc1OCC [Exemple 9, Lactobionate de diamino-2,4 (iodo-2 diéthoxy-4,5 benzyl)-5 pyrimidine] | – | – | – | – | – | – | – | – | – | – | – | – | – | – | – | – | – | – | – | – | LD50 [5]: 157 mg/kg
3 | COc1cc(Cc2cnc(N)nc2N)cc(OC)c1OC [Iséthionate de TMP, iséthionate de triméthoprime, reference compound] | 16 (≈ 55.1 µM) | 8 (≈ 27.6 µM) | 16 (≈ 55.1 µM) | – | – | – | – | – | 16 (≈ 55.1 µM) | – | 8 (≈ 27.6 µM) | 4 (≈ 13.8 µM) | 0.06 (≈ 0.207 µM) | 0.25 (≈ 0.861 µM) | 2 (≈ 6.89 µM) | – | – | – | – | 64 (≈ 220 µM) | MIC ([1]; strain No. 109, TMP-resistant): 8 µg/mL (≈ 27.6 µM); souches résistantes [4]: 33 souches
4 | COc1cc(Cc2cnc(N)nc2N)cc(OC)c1OC [TMP, diamino-2,4 (triméthoxy-3,4,5 benzyl)-5 pyrimidine, reference compound] | – | – | – | – | 16 (≈ 55.1 µM) | > 64 | 64 (≈ 220 µM) | > 64 | – | – | – | – | – | – | – | 0 | 0 | 0 | 0 | – | –

Further lines, with some results ahead:

Row | MIC ([1]; strain No. 82, TMP-resistant) [µg/mL] | MIC ([1]; strain No. 87, TMP-resistant) [µg/mL] | MIC ([1]; strain No. 102, TMP-resistant) [µg/mL] | MIC (Listeria monocytogenes) [µg/mL] | MIC [3, 11] [µg/mL] | MIC [3, 12] [µg/mL] | MIC [3, 13] [µg/mL] | MIC [3, 14] [µg/mL] | Structure (SMILES) | MIC ([1]; strain No. 101, TMP-resistant) [µg/mL] | CMI (Listeria monocytogenes; [6]) | MIC (Escherichia coli; 18 h, Escherichia coli 33430) [µg/mL] | MIC (Escherichia coli; [7]) [µg/mL] | MIC (Staphylococcus aureus; [9]) [µg/mL] | MIC (Staphylococcus aureus; [10]) [µg/mL] | MIC (Serratia marcescens) [µg/mL] | zone of inhibition at 5 µg/disc [2, 11] [mm] | zone of inhibition at 5 µg/disc [2, 12] [mm] | zone of inhibition at 5 µg/disc [2, 13] [mm] | zone of inhibition at 5 µg/disc [2, 14] [mm] | MIC ([1]; strain No. 107, TMP-resistant) [µg/mL] | also measured
5 | 32 (≈ 102 µM) | 8 (≈ 25.4 µM) | 32 (≈ 102 µM) | 0.25 (≈ 0.795 µM) | – | – | – | – | COc1cc(Cc2cnc(N)nc2N)ccc1OC1CCCC1 [Composé X, reference compound] | 32 (≈ 102 µM) | 0,25 µg/ml | > 64 | > 64 | 0.25 (≈ 0.795 µM) | 1 (≈ 3.18 µM) | 32 (≈ 102 µM) | – | – | – | – | – | MIC (Staphylococcus aureus; [8]): 0.5 µg/mL (≈ 1.59 µM)
6 | – | – | – | – | 2 (≈ 5 µM) | < 0.06 | 0.12 (≈ 0.3 µM) | 1 (≈ 2.5 µM) | CCOc1cc(I)c(Cc2cnc(N)nc2N)cc1OC [Ex. 1, diamino-2,4 (iodo-2 éthoxy-4 méthoxy-5 benzyl)-5 pyrimidine] | – | – | – | – | – | – | – | 19 | 32 | 32 | 24 | – | –
7 | – | – | – | – | 2 (≈ 4.54 µM) | 0.25 (≈ 0.568 µM) | < 0.06 | 2 (≈ 4.54 µM) | COc1cc(Cc2cnc(N)nc2N)c(I)cc1OC1CCCC1 [Ex. 4, Diamino-2,4 (iodo-2 cyclopentyloxy-4 méthoxy-5 benzyl)-5 pyrimidine] | – | – | – | – | – | – | – | 19 | 29 | 35 | 20 | – | –
8 | 2 (≈ 4.54 µM) | 2 (≈ 4.54 µM) | 4 (≈ 9.09 µM) | – | – | – | – | – | COc1cc(Cc2cnc(N)nc2N)c(I)cc1OC1CCCC1 [Ex. 18, Iséthionate de diamino-2,4 (iodo-2 cyclopentyloxy-4 méthoxy-5 benzyl)-5 pyrimidine] | – | – | – | – | – | – | – | – | – | – | – | 4 (≈ 9.09 µM) | –
9 | 0.5 (≈ 1.23 µM) | 1 (≈ 2.46 µM) | 0.5 (≈ 1.23 µM) | 0.06 (≈ 0.147 µM) | – | – | – | – | COc1cc(Cc2cnc(N)nc2N)c(Br)cc1OC1CCCCC1 [Ex. 24, Iséthionate de diamino-2,4 (bromo-2 cyclohexyloxy-4 méthoxy-5 benzyl)-5 pyrimidine] | 0.5 (≈ 1.23 µM) | 0,06 µg/ml | > 64 | > 64 | 0.06 (≈ 0.147 µM) | – | > 64 | – | – | – | – | – | CMI (Listeria monocytogenes; [15]): 0,06 µg/ml; CMI (Listeria monocytogenes; [16]): 0,06 µg/ml; MIC (Staphylococcus aureus; [8]): 0.06 µg/mL (≈ 0.147 µM)
